Legend:
[1] = test system: O2KM cell line; experiment: 5AC effects on MYF5 expression and terminal differentiation of O2KM; assay type: cell-based, porcine
Protocol: Therefore, a epigenetic modulator was used to enhance the expression of myogenic genes in cells otherwise non-permissive to myogenesis and enhance terminal differentiation of lineage committed myoctes to mature myofibers. […] This distinction may explained by the enhanced expression of the myogenic transcription factor MYF5 observed only in the 5AC-exposed O2KM prior to and following 48 hours of DOX withdrawal
(§1) 5AC exposure prior to, during, and following E2-mediated induction of ‘MyoDER’ was introduced to enable terminal-differentiation of O2KM from myocytes into refractive, filamentous myotubes. The murine C2C12 cell line was used as positive control to screen for optimal conditions for terminal differentiation by O2KM. […] 5AC, a small-molecule epigenetic modulator, was determined previously to enable skeletal muscle transcription in cell lines non-permissive to myogenesis. Moreover, 5AC exposure was further determined to enhance terminal differentiation by the C2C12 cell line.
N-2 and B-27 supplements were used exclusively as serum replacements. Cultures were differentiated for up to 6d following under 20% O2 following induction regimens (FIG. 20A). […] Contractile potential of terminally differentiating skeletal muscle myotubes was validated by (1) structural development of well-organized sarcomeres, as shown in FIG. 20G; (2) asynchronous spontaneous contraction, as shown in FIG. 21A; (3) contractile stimulation and synchronization by field stimulation, as shown in FIG. 21B; (4) caffeine-stimulated contraction, as shown in FIG. 21C; and (5) acetylcholine-stimulated contraction, as shown in FIG. 21D.
piPSC modification with an integrated MyoDER expression cassette. […] Arrows and boxes indicate promoter and gene sequences, respectively. […] MyoDER was detected with an antibody raised against a MyoD peptide. […] Endogenous MYOD1 (˜45 kD, expected) was not detected. […] Double Arrow: Partially resolved MYOG isoforms. FIGS. 19A and 19B. Determinants of MYF5 activation: Western blot analyses. […] In the absence of CHIR99021, the 17 kD cleaved caspase isoform was not observed in the KOSR supplemented differentiation milieu, as in contrast to observations in the N-2 and B-27 supplemented differentiation milieu (FIG. 17A, FIG. 19A). […] MYODER-modified piPSC were cultured 3 days in self-renewal or expansion milieu. […] TUBA is detected as an internal protein loading control.

[2] = test system: undifferentiated O2KM; experiment: 5AC tolerance of undifferentiated O2KM; assay type: cell-based, porcine
Protocol: as §1

[3] = test system: CTNNB1; experiment: Western blot of CTNNB1 level and phosphorylation in differentiating O2K; assay type: cell-based, porcine; conditions: primordial differentiation
Source text: TUBA detected as an internal protein loading control. […] TUBA detection is shown as an internal protein loading control.

[4] = test system: O2K cell line; experiment: differentiation marker Western blot (PAX3, POU5F1, KLF4) in O2K; assay type: cell-based, porcine; conditions: differentiating O2K, CHIR99021 supplemented basal medium
Source text: (§2) 1. As CHIR99021 repressed cell death, supported differentiation toward paraxial mesoderm by the differentiating O2K cell line and enhanced terminal differentiation by the C2C12 cell line, precedent was established to retain the compound in all culture stages.
TUBA detected as an internal protein loading control. FIG. 13A indicates ratios of p-CTNNB1/CTNNB1 bands. FIG. 13B indicates ratios of CTNNB1/TUBA bands. […] TUBA detection is shown as an internal protein loading control.

[5] = test system: murine C2C12 myoblast; experiment: terminal differentiation of C2C12 myoblasts, scored by size and extent of myotube formation; assay type: cell-based; conditions: low-mitogen differentiation cultures (2% horse serum/DMEM)
[6] = test system: O2K cell line; experiment: cell death / survival of differentiating O2K (phase contrast, cell adhesion, CPP32 cleavage, Annexin V); assay type: cell-based, porcine; conditions: SRM basal medium without hLIF, DOX, PD032591 and PD173074
Source text: as §2
TUBA is detected an internal protein loading control.

[7] = test system: piPSC-derived myotubes; experiment: calcium transient activity (Fluo-4 AM) in piPSC-derived myotubes; assay type: cell-based, porcine; conditions: d6 myotubes, 10 mM, field of view
Source text: To quantify contraction cycles, myotube cultures were stained with Fluo-4 AM calcium dye, washed, and image sequences were captured by confocal microscopy. Dynamic signaling events of an entire field of view (FOV) or single cells were traced and plotted over the imaging course. [s]=seconds.

## Nc1ncn([C@@H]2O[C@H](CO)[C@@H](O)[C@H]2O)c(=O)n1 [5AC, 5-Aza-Cytidine]
[1]; MyoDER-modified piPSC, 3 days, in the presence of DOX and CHIR99021
  MYF5 expression after expansion culture: supported detectable MYF5 expression levels
[1]; O2KM derived myocytes cultured in the presence of 5AC
  MYF5 expression: MYF5 expression was enhanced
[1]; O2KM exposed to 5AC during expansion and induction regimens
  myotube morphology in terminal differentiation: formed refractive, anisotropic myotubes
[1]; unmodified piPSC, 2d differentiation milieu with KOSR, no 3i, DOX, hLIF, E2
  activation of endogenous MYF5 expression, dependence on CHIR99021: dependent upon simultaneous CHIR99021 exposure
[2]
  highest dose tolerated: 250 nM

## Cc1c[nH]c(-c2cnc(NCCNc3ccc(C#N)cn3)nc2-c2ccc(Cl)cc2Cl)n1 [CHIR99021]
[3]
  CTNNB1 stabilization and phosphorylation status: stabilizes and modulates the phosphorylation status of the GSK3β substrate, CTNNB1
[4]
  paraxial mesoderm lineage specification (PAX3 expression, loss of POU5F1 and KLF4): supported pre-myogenic paraxial mesoderm lineage specification of differentiating O2K
[5]
  terminal differentiation of C2C12 into skeletal myotubes: enhanced terminal differentiation into skeletal myotubes
[6]
  cell survival during differentiation: supported both cell survival during differentiation

## Cn1c(=O)c2c(ncn2C)n(C)c1=O [caffeine]
[7]
  calcium transient activation: calcium transient activation

Reference: patent US20160251625A1, “METHOD FOR SCALABLE SKELETAL MUSCLE LINEAGE SPECIFICATION AND CULTIVATION” (THE CURATORS OF THE UNIVERSITY OF MISSOURI, priority 2013, published 2016)
